PMC12586182 (Frontiers in Oncology, 2025)

Key:
[1] = target: T1, EPHA7 (Homo sapiens, UniProt Q15375); assay: Kinase panel profiling at 1 µmol/L (mobility shift assay, Carna); type: biochemical; settings: 1 µmol/L of BTK inhibitor
T1 construct: purchased Carna Biosciences

[2] = target: T2, IKKβ (Homo sapiens, UniProt O14920); assay: as above; type: biochemical; settings: 1 µmol/L of BTK inhibitor
T2 construct: purchased Carna Biosciences
T2 sequence (O14920 1-756): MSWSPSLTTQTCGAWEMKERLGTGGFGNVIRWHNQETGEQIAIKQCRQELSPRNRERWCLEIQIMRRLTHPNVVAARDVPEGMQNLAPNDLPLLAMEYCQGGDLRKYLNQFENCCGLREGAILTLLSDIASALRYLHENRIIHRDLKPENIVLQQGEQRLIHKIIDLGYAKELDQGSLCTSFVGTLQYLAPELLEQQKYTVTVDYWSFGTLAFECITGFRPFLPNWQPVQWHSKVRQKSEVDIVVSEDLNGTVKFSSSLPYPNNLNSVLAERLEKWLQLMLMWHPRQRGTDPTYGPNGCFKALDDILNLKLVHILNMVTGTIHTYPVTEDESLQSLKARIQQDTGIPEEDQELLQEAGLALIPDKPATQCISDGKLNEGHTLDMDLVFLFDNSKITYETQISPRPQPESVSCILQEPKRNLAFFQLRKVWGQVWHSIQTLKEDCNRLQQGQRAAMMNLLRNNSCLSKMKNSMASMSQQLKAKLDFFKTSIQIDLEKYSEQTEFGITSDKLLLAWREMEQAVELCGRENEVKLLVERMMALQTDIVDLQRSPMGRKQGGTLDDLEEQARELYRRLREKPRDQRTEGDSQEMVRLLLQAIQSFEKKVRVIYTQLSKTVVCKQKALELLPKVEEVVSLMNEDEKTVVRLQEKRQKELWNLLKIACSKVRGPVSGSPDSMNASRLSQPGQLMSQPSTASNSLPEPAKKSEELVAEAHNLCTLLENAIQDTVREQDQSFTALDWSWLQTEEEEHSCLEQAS

[3] = target: T3, MRCKβ (Homo sapiens, UniProt Q9Y5S2); assay: as above; type: biochemical; settings: 1 µmol/L of BTK inhibitor
T3 construct: purchased Carna Biosciences
T3 sequence (Q9Y5S2 whole entry): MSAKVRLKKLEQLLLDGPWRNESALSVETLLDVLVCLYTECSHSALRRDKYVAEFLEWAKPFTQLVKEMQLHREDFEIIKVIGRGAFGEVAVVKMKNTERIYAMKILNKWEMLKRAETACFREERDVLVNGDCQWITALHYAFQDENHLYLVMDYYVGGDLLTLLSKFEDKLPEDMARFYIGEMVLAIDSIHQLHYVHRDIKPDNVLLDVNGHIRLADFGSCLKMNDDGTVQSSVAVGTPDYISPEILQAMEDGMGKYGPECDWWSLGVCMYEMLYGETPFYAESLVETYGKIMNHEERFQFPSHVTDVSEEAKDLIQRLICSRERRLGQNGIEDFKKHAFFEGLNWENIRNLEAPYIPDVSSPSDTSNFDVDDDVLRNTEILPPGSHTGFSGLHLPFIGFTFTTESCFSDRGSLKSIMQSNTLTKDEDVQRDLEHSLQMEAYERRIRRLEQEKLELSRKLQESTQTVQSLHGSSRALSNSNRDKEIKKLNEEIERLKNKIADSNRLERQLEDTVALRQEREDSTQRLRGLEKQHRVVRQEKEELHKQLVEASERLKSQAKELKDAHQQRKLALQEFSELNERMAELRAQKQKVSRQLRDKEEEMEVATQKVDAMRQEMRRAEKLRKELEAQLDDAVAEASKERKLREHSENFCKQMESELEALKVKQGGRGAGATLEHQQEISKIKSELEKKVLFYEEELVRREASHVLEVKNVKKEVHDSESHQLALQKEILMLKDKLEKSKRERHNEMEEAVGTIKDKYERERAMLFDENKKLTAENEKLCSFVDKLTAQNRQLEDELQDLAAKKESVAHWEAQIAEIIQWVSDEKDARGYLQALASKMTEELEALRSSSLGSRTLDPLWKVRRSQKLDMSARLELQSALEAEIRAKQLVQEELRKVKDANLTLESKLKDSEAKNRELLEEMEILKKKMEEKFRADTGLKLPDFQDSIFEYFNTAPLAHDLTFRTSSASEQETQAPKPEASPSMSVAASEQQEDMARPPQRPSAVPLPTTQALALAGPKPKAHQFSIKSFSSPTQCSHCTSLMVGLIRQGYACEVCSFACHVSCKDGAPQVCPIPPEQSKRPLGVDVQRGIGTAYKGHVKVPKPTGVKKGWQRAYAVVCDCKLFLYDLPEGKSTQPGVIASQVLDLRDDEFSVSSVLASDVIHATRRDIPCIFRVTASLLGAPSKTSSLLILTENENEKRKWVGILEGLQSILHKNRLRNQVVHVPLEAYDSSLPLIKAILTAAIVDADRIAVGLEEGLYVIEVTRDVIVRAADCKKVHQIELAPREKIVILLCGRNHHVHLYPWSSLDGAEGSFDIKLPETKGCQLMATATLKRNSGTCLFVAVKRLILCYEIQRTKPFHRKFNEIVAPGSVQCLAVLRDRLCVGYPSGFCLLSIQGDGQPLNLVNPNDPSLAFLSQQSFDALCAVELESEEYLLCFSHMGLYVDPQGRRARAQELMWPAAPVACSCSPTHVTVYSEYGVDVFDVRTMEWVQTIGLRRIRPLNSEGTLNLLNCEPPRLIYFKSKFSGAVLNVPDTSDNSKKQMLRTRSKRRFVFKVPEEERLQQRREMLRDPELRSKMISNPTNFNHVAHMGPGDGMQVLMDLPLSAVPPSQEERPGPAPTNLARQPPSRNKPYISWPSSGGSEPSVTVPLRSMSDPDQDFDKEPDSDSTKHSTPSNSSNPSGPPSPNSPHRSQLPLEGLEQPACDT

[4] = target: T4, TAOK2 (Homo sapiens, UniProt Q9UL54); assay: as above; type: biochemical; settings: 1 µmol/L of BTK inhibitor
T4 construct: purchased Carna Biosciences
T4 sequence (Q9UL54 1-1235): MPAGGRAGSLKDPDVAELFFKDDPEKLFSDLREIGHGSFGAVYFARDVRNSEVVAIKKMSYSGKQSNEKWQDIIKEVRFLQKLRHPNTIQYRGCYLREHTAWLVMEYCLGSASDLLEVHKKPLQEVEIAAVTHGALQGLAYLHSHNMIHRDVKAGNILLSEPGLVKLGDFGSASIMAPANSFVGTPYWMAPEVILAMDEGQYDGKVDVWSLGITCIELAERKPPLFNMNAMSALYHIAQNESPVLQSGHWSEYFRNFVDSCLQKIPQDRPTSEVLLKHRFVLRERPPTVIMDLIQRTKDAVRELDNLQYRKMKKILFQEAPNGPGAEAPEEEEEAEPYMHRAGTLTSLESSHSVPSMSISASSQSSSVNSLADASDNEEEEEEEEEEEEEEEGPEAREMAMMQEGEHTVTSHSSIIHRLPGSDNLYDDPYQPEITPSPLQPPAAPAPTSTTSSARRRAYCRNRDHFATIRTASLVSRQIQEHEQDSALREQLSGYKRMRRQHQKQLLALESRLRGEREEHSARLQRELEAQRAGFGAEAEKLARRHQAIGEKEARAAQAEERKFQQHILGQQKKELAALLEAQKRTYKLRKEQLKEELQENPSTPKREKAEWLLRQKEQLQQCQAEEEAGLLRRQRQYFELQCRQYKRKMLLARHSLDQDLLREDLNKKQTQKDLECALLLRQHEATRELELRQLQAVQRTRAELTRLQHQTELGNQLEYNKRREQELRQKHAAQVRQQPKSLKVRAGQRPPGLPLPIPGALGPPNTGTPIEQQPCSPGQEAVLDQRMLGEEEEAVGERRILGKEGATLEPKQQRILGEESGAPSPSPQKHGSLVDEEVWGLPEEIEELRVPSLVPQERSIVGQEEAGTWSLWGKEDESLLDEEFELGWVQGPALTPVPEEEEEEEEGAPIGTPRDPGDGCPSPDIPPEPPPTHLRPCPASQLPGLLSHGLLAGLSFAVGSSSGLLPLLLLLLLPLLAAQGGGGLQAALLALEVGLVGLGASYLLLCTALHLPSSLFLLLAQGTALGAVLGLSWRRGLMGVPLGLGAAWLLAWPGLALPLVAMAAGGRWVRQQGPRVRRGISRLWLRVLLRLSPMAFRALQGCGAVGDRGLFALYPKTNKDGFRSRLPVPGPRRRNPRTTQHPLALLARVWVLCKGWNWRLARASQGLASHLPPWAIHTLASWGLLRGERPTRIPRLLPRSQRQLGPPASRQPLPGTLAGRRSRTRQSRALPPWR

[5] = target: ERK1 (Homo sapiens, UniProt P27361); assay: Kinase enzyme activity assay (mobility shift assay, Carna); settings: for Percentage inhibition of kinase enzyme activity: Erk1, 1 µmol/L of BTK inhibitor
ERK1, sequence (P27361 whole entry): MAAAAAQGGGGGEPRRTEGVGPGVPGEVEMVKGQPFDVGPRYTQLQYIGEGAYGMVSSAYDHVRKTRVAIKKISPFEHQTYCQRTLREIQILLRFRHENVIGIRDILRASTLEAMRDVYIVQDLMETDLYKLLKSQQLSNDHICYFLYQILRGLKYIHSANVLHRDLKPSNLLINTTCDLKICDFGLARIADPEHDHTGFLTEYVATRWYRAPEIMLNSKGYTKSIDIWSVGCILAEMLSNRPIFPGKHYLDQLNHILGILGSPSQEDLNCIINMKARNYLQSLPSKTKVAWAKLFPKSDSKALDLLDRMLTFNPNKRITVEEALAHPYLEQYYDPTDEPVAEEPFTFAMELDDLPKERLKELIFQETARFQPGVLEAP

T1 sequence (Q15375 28-998): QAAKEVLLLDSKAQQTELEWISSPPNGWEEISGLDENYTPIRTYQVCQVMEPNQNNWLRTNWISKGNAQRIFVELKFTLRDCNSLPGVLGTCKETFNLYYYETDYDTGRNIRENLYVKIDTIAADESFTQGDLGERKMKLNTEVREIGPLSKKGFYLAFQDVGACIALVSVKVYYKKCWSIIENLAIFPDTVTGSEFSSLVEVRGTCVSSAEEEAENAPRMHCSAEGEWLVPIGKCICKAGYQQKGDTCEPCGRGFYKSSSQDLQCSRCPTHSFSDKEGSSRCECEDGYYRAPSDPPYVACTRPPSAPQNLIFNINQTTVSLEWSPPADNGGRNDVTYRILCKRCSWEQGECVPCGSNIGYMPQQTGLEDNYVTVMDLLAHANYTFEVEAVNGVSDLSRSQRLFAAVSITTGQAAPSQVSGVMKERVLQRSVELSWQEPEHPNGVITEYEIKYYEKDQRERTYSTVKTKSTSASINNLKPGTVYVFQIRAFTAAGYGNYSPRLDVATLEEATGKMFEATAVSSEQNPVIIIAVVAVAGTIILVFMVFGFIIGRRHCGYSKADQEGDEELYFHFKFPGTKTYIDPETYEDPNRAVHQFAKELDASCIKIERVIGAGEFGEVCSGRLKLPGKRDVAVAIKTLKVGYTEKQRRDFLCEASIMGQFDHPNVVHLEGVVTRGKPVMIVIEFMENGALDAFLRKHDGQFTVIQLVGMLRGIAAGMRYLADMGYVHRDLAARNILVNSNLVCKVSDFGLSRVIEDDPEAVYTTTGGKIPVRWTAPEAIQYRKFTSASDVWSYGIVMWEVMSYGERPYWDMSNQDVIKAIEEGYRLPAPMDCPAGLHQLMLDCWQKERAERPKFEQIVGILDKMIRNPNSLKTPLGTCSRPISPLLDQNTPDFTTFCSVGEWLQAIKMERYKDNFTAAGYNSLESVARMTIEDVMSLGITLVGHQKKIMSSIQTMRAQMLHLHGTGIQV

Q: How did the “Percentage inhibition of kinase enzyme activity” value (from here on “Percentage inhibition”) [1] turn out when CC#CC(=O)N1CCC[C@H]1c1nc(-c2ccc(C(=O)Nc3ccccn3)cc2)c2c(N)nccn12 [acalabrutinib] was run?
A: -3.54%

Q: What about the “Percentage inhibition” value [2] of the same molecule?
A: -6.98%

Q: What about the “Percentage inhibition” value [3] of the same molecule?
A: -15.91%

Q: And the “Percentage inhibition” value [4]?
A: 5.31%

Q: What about the “Percentage inhibition” value [5] of the same molecule?
A: -2.38%

Q: With C=CC(=O)N1CCC[C@@H](n2nc(-c3ccc(Oc4ccccc4)cc3)c3c(N)ncnc32)C1 [ibrutinib] as the molecule, how does the “Percentage inhibition” value [1] read?
A: 6.99%

Q: What about the “Percentage inhibition” value [2] of the same molecule?
A: -0.35%

Q: And the “Percentage inhibition” value [3]?
A: -7.55%

Q: And the “Percentage inhibition” value [4]?
A: 5.25%

Q: What about the “Percentage inhibition” value [5] of the same molecule?
A: 1.74%

Q: What does the source list for O=C(c1ccc(Oc2ccccc2)cc1Cl)c1c[nH]c2ncnc(N[C@@H]3CC[C@@H](CO)OC3)c12 [nemtabrutinib]?
A: Percentage inhibition of kinase enzyme activity [1]: 94.05%; Percentage inhibition of kinase enzyme activity [2]: -1.18%; Percentage inhibition of kinase enzyme activity [3]: -5.25%; Percentage inhibition of kinase enzyme activity [4]: 41.31%; IC50 [5]: 543 nM; Inhibition of ERK1 [5]: did not inhibit; Percentage inhibition of kinase enzyme activity [5]: 61.74%

Q: With COc1ccc(F)cc1C(=O)NCc1ccc(-c2nn([C@@H](C)C(F)(F)F)c(N)c2C(N)=O)cc1 [pirtobrutinib] as the molecule, how does the “Percentage inhibition” value [1] read?
A: -9.86%

Q: What about the “Percentage inhibition” value [2] of the same molecule?
A: 0.58%

Q: And the “Percentage inhibition” value [3]?
A: 0.61%

Q: What about the “Percentage inhibition” value [4] of the same molecule?
A: 1.74%

Q: What about the “Percentage inhibition” value [5] of the same molecule?
A: -1.16%

Q: C=CC(=O)N1CCC([C@@H]2CCNc3c(C(N)=O)c(-c4ccc(Oc5ccccc5)cc4)nn32)CC1 [zanubrutinib] was tested. Which “Percentage inhibition” value [1] did it give?
A: -7.84%
